Data on 7 molecules can be found in US4020111A, “Propynyloxy alkyl arene insecticides” (priority 1975, dated 1977).

Series [1] has as its system polyvalent resistant (CH strain) houseflies. Description: whole plant or invertebrate. The series is classed as in vivo, housefly (CH strain). The conditions noted are these: CH strain.
The subject of series [2] is Rutgers A strain house flies. Description: topical application test, percent kill after 24 hours, Rutgers A strain. The series is classed as in vivo, house fly (resistant Rutgers A strain). As to the method:
In Table IX, and in the tables following it, the doses of topically applied insecticides and of synergists unless otherwise noted are expressed as micrograms per fly (μg/fly).
The synergistic effect of O-(2-propynyl) oximes with mobam was determined from topical application tests on susceptible, female, IN/WHO strain house flies and from tests on resistant, female, Rutgers A strain house flies. The synergist and insecticide were dissolved in ACS Grade acetone in such quantities that a 1.0μ liter volume applied to the thorax of 3-to-5 day old CO2 -anesthetized female adult house flies contained the desired dosage. After being treated, the flies were confined, 10 to a plaster petri dish, with 3-5 dishes/treatment, and held for 24-hr. observation of mortality. Reconstituted skim milk on cotton dental wicks was provided during the holding period. The percent kills after 24 hours are shown in Table X for the IN/WHO strain and Table XI for the Rutgers A strain.
The synergistic effect of benzyl 2-propynyl ethers with mobam was determined from topical application tests on IN/WHO and Rutgers A strain houseflies, following the procedure of Example 5. The percent kills after 24 hours are shown in Table XIV for the IN/WHO strain and in Table XV for the Rutgers A strain.
The synergistic effect with Diazinon of compounds I-B, I-D, I-F, I-G, I-H and I-I, identified in Tables I and Ia, was determined from topical application tests on IN/WHO strain houseflies and on Rutgers A strain houseflies by the procedure of Example 5. The percent kills after 24 hours are shown in Table XXV for the IN/WHO strain and Table XXVI for the Rutgers A strain.
The synergistic effect with GS 13005 of compounds I-A, I-B, I-D, I-E, I-F, I-G and I-I was determined from topical application tests to IN/WHO strain, Rutgers A strain and polyvalent CH strain houseflies using the procedures of Example 5. The percent kills of the IN/WHO strain flies after 24 hours are shown in Table XXVIII; of the Rutgers A strain, in Table XXIX; and of the polyvalent CH strain, in Table XXX. The doses of insecticide alone to the CH strain files caused 10-40% mortality.
The synergistic effect with Diazinon and GS 13005 of various of the benzyl 2-propynyl ethers identified in Tables II and IIa was determined by topical application tests on IN/WHO strain, and Rutgers A strain and polyvalent, resistant, CH strain houseflies using the procedures of Example 5. The percent kills after 24 hours of IN/WHO strain flies are shown in Table XXXI; of Rutgers A strain flies, in Table XXXII; and of CH strain flies, in Table XXXIII. The doses of insecticide alone to the CH strain flies caused 10-40% mortality.
The synergistic effect on IN/WHO strain flies and Rutgers A strain flies of compound IV-C with GS 13005 and with Diazinon was determined by the topical application procedure of Example 5. The percent kills of IN/WHO strain flies after 24 hours are shown in Tables XXXVI and XXXVII; the percent kills of Rutgers A strain flies are shown in Tables XXXVIII and XXXIX.

Series [3] relates to CH strain flies. Briefly: spray application of pyrethrum, average percent knockdown with time. The conditions noted are these: pyrethrum 100 + synergist 100 mg/cc. It is filed as in vivo, housefly (CH strain). As to the method:
The average percent knockdown of CH strain flies, as a function of time, resulting from spray application of pyrethrum, alone and with synergists, are given in Table XXXXIII. Duplicate tests were performed using 50 CH strain houseflies per test. Test solutions of 100 mg and 200mg of pyrethrum per cc of acetone, 200 mg of synergist per cc of acetone, and a mixture of 100 mg of pyrethrum and 100 mg of synergist per cc of acetone were prepared. The fifty CH strain houseflies were put in a 40 liter spray chamber and 1 cc of the test solution was sprayed into the test chamber with a spray pistol. The synergists alone at 200 mg/cc caused no knockdown.

In series [4] the test system is mice. Description: extension of Noludar sleeping time by synergists. It is filed as in vivo, Swiss albino white male mice. As to conditions: Noludar 110 mg/K, synergist 110 mg/K; for Relative Sleeping Time: treated/control. Put shortly:
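Swiss albino male mice (~38 days, 25-30 g) given synergist at 74.0 or 110.0 mg/kg in corn oil 1 h before Secobarbital 37.0 mg/kg or Noludar 110.0 mg/kg in water. Sleeping time measured from drug dosing to righting-reflex recovery; relative sleeping time = treated ÷ drug-only control.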

Setting [5] is: Dimetilan 2 + synergist 4 μg/fly.
Where [6] appears, read: GS 13005 1 + synergist 2 μg/fly.
[7] abbreviates: GS 13798 1 + synergist 2 μg/fly.
[8] abbreviates: Pyrethrum 2 + synergist 4 μg/fly.
Where [9] appears, read: Mobam 0.15 + synergist 0.75 μg/fly.
[10] abbreviates: Diazinon 5 + synergist 10 μg/fly.
Where [11] appears, read: Mobam 0.30 + synergist 1.5 μg/fly.

Turning to `C#CCON=C(C)c1ccc(Cl)cc1` [I-D], the “percent kill after 24 hours” value in series [1] (setting [5]) is given as 100%; in series [1] (setting [6]), 100%; in series [1] (setting [7]), 100%; in series [1] (setting [8]), 67%; in series [2] (setting [9]) it was 19%; in series [2] (Mobam 0.60 + synergist 3.0 μg/fly), 100%. The average percent knockdown in series [3] (5 min) came to 6%; in series [3] (10 min) it was 15%; in series [3] (15 min), 26%; in series [3] (20 min), 39%; in series [3] (25 min) it was 52%; in series [3] (30 min) it was 60%. Besides, the values for the average percent knockdown in series [3] (40 min), in series [3] (50 min) and in series [3] (60 min) were 86%, 87% and 88%, respectively. For the same molecule, the “Mean Sleeping Time” value in series [4] was 58 min. Further, the “Relative Sleeping Time” value in series [4] is reported as 1.5.
For the molecule `C#CCOCc1c(Cl)ccc(Cl)c1Cl` [II-E], the “percent kill after 24 hours” value in series [1] (setting [10]) came to 65%; in series [1] (setting [5]), 100%; in series [1] (setting [6]), 100%; in series [1] (setting [7]), 100%; in series [1] (setting [8]), 78%; in series [2] (setting [9]) it was 17%. Moreover, the “percent kill after 24 hours” value in series [2] (synergist alone 7.5 μg/fly) was 0%. Moreover, the average percent knockdown is 5% in series [3] (5 min); 9% in series [3] (10 min); 17% in series [3] (15 min); 44% in series [3] (20 min); 55% in series [3] (25 min); 59% in series [3] (30 min). Besides, the average percent knockdown in series [3] (40 min) was found to be 77%; in series [3] (50 min), 93%; in series [3] (60 min), 95%. Moreover, the “Mean Sleeping Time” value in series [4] was determined as 45 min. Besides, in series [4], the “Relative Sleeping Time” value stood at 1.1.
`C#CCOCc1c(Cl)cccc1[N+](=O)[O-]` [II-K]: in series [4], the “Mean Sleeping Time” value was found to be 75 min and the “Relative Sleeping Time” value was 2.4.
Regarding `C#CCOCc1ccc(Cl)c(Cl)c1` [II-C], the “percent kill after 24 hours” value in series [1] (setting [10]) stood at 95%; in series [1] (setting [5]) it was 100%; in series [1] (setting [6]), 75%; in series [1] (setting [7]), 92%; in series [1] (setting [8]), 50%; in series [2] (setting [11]) it was 20%. Further, the “Mean Sleeping Time” value in series [4] was 50 min. Also, the “Relative Sleeping Time” value in series [4] was 1.3.
For the molecule `C#CCON=C(C)c1ccc2ccccc2c1` [I-F], the “percent kill after 24 hours” value in series [1] (setting [5]) turned out to be 100%; in series [1] (setting [6]), 100%; in series [1] (setting [7]) it was 95%; in series [1] (setting [8]) it was 35%; in series [2] (Diazinon 3.0 + synergist 3.0 μg/fly), 95%; in series [2] (GS 13005 1.0 + synergist 5.0 μg/fly), 95%. In addition, the “percent kill after 24 hours” value in series [2] (setting [11]) is 38%. The “Mean Sleeping Time” value in series [4] came to 55 min. Also, the “Relative Sleeping Time” value in series [4] was 1.4.
As to `C#CCOCc1ccc(Cl)c(Cl)c1Cl` [II-D], the “percent kill after 24 hours” value in series [1] (setting [10]) is 60%; in series [1] (setting [5]), 100%; in series [1] (setting [6]) it was 95%; in series [1] (setting [7]), 100%; in series [1] (setting [8]) it was 30%. Further, the “Mean Sleeping Time” value in series [4] stood at 46 min. In addition, the “Relative Sleeping Time” value in series [4] turned out to be 1.0.
With `C#CCON=Cc1ccc(Cl)cc1Cl` [I-G], the “percent kill after 24 hours” value in series [1] (setting [6]) is given as 100%; in series [1] (setting [8]), 47%; in series [2] (Diazinon 3.0 + synergist 15 μg/fly), 100%. Besides, the average percent knockdown in series [3] (5 min) is 7%; in series [3] (10 min) it was 12%; in series [3] (15 min) it was 31%; in series [3] (20 min) it was 36%; in series [3] (25 min), 59%; in series [3] (30 min), 66%. In addition, the average percent knockdown in series [3] (40 min) amounted to 89%; in series [3] (50 min), 93%; in series [3] (60 min) it was 94%. The “Mean Sleeping Time” value in series [4] was determined as 48 min. In addition, the “Relative Sleeping Time” value in series [4] is recorded as 1.2.
